In ChEMBL document CHEMBL1149506, “Synthesis and in vitro biological evaluation of aryl boronic acids as potential inhibitors of factor XIa” (Bioorg Med Chem Lett, 2006):
Counter-ions that a name gives are not always drawn.

Experiments:
Homo sapiens [1] = species: Homo sapiens; test: Selectivity for f11a over f10a
Coagulation factor X = Coagulation factor X (Homo sapiens, UniProt P00742); test: Inhibition of f10a
Prothrombin = Prothrombin (Homo sapiens, UniProt P00734); test: Inhibition of thrombin
Coagulation factor XI = Coagulation factor XI (Homo sapiens, UniProt P03951); test: Inhibition of f11a
Coagulation factor XI, sequence (P03951 19-387 limits assumed): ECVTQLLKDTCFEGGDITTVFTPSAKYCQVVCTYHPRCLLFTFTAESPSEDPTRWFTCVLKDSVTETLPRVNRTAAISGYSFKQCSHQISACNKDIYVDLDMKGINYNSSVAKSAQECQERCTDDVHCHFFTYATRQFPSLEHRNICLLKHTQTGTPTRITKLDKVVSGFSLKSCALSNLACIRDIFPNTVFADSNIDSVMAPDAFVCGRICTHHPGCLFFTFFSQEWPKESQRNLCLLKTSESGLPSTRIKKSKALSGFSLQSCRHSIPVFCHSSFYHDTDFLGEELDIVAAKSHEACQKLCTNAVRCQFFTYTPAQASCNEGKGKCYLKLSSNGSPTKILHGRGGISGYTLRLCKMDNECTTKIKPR
Coagulation factor XI, sequence (P03951 388-625 limits assumed): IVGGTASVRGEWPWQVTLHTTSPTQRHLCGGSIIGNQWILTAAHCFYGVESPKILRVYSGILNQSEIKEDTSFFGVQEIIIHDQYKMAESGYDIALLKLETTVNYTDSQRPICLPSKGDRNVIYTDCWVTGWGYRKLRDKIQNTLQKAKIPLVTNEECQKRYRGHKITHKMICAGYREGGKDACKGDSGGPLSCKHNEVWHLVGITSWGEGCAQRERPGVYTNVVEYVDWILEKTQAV

Trypsin = Trypsin (Homo sapiens, UniProt P07477+P07478+P35030); test: Inhibition of trypsin; format: protein assay
Homo sapiens [2] = species: Homo sapiens; test: Selectivity for f11a over trypsin

Coagulation factor X, sequence (P00742 41-179 limits assumed): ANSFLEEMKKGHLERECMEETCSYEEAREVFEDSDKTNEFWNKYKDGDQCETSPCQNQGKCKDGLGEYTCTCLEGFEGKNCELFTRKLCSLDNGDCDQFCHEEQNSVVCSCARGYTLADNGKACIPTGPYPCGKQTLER
Coagulation factor X, sequence (P00742 235-488 limits assumed): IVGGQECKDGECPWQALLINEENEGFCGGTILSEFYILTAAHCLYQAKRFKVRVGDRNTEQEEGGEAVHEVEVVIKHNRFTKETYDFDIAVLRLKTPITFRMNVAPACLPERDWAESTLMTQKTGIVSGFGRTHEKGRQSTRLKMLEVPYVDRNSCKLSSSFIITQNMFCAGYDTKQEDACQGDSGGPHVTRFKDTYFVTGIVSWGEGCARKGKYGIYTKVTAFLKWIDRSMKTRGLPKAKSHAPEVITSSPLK

| SMILES | Selectivity ratio (Homo sapiens [1]) | IC50 (Coagulation factor X) [µM] | IC50 (Prothrombin) [µM] | IC50 (Coagulation factor XI) [µM] | IC50 (Trypsin) [µM] | Selectivity ratio (Homo sapiens [2]) |
| --- | --- | --- | --- | --- | --- | --- |
| N=C(N)NCc1ccc(B(O)O)cc1.O=C(O)C(F)(F)F | 10 | > 200 | 146 | 22 | > 200 | 10 |
| CC1(C)OB(c2ccc(C(NC(=N)N)OC(=O)c3cccnc3)cc2)OC1(C)C.O=C(O)C(F)(F)F (stereo not given) | 30 | 43.6 | 12.3 | 1.4 | > 200 | 200 |
| CC1(C)OB(c2ccc(NC(=N)N)cc2)OC1(C)C.O=C(O)C(F)(F)F | – | 129 | 5.5 | 5.9 | 2.3 | – |
| CC1(C)OB(c2ccc(CCN=C(N)N)cc2)OC1(C)C.O=C(O)C(F)(F)F | 25 | 175 | 30.8 | 7.3 | 20.3 | 3 |
| N=C(N)c1ccccc1 [BENZAMIDINE HYDROCHLORIDE] | – | – | – | 120 | – | – |
| CC1(C)OB(c2ccc(CN=C(N)N)cc2)OC1(C)C | 10 | > 200 | 129 | 24.7 | > 200 | 10 |
| NCc1ccc(B(O)O)cc1 | – | – | – | 77.3 | – | – |
